Assay results: PMC11869342, “Design and synthesis of novel HDAC6 inhibitor dimer as HDAC6 degrader for cancer treatment by palladium catalysed dimerisation” (Journal of Enzyme Inhibition and Medicinal Chemistry, 2025)
“Also recorded” adds a separate entry of the source. Like-named read-outs stand apart in the source and are kept apart here.

Legend:
HDAC1 = target: T1, HDAC1 (Homo sapiens, UniProt Q13547); test: HDAC enzyme activity assay (Reaction Biology), HDAC1; assay type: biochemical
T1 construct: purchased Reaction Biology Corporation (Malvern, PA)
T1 sequence (Q13547 whole entry): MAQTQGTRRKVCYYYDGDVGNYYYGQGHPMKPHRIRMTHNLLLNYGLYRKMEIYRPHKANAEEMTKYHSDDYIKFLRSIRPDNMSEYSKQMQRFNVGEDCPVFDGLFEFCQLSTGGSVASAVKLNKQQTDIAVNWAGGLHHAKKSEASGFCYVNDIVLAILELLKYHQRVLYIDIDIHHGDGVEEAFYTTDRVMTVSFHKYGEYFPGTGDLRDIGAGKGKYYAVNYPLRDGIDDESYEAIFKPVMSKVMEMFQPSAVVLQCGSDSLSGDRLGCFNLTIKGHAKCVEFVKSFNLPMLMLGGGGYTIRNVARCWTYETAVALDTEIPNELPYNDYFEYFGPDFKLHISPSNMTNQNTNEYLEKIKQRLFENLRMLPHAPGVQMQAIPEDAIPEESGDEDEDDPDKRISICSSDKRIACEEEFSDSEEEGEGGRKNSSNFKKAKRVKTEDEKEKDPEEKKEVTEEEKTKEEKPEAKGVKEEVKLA

A549 cells = test: Sulforhodamine B (SRB) assay, A549; assay type: cell-based; conditions: Homo sapiens, read-out: GI50 con. ± SEM A549
Experimental: (§1) The A549 and PC-3 human lung and prostate cancer cell lines were acquired from the American Type Culture Collection (Rockville, MD). […] The cultures were kept in a 37 °C incubator with 5% CO2. When the adherent cultures reached 80% confluence, they were passaged using 0.05% trypsin-EDTA. PC-3 and A549 cells were seeded into 96-well plates in RPMI medium with 5% (v/v) foetal bovine serum for 24 h. Cells in partial wells were fixed with 10% trichloroacetic acid (TCA) to represent the initial time of compound treatment. The cells were treated with or without the indicated compound for 48 h and then were fixed with 10% TCA. After the washout with ddH2O and air-dried, SRB at 0.4% (w/v) in 1% acetic acid was added for staining. Unbound SRB was washed with 1% acetic acid and SRB-bounded cells were solubilised with 10 mM Tris base. The absorbance was read at a wavelength of 515 nm for the determination of cell growth.

PC-3 cells = test: Sulforhodamine B (SRB) assay, PC-3; assay type: cell-based; conditions: Homo sapiens, read-out: GI50 con. ± SEM PC-3
Experimental: as §1

HDAC6 [1] = target: T2, HDAC6 (Homo sapiens, UniProt Q9UBN7); test: HDAC enzyme activity assay (Reaction Biology), HDAC6; assay type: biochemical; set-up: Full-length recombinant hHDAC 6 was expressed in a baculovirus expression system in SF9 cells; purchased Reaction Biology Corporation (Malvern, PA); host or cells: baculovirus / SF9 insect cells; conditions: for HDAC1/6 Selectivity: ratio of HDAC1 IC50 to HDAC6 IC50; for IC50: full-length recombinant hHDAC 6, RHKKAc substrate 50 μM, 2 h at 30 °C
T2 sequence (Q9UBN7 1-1215): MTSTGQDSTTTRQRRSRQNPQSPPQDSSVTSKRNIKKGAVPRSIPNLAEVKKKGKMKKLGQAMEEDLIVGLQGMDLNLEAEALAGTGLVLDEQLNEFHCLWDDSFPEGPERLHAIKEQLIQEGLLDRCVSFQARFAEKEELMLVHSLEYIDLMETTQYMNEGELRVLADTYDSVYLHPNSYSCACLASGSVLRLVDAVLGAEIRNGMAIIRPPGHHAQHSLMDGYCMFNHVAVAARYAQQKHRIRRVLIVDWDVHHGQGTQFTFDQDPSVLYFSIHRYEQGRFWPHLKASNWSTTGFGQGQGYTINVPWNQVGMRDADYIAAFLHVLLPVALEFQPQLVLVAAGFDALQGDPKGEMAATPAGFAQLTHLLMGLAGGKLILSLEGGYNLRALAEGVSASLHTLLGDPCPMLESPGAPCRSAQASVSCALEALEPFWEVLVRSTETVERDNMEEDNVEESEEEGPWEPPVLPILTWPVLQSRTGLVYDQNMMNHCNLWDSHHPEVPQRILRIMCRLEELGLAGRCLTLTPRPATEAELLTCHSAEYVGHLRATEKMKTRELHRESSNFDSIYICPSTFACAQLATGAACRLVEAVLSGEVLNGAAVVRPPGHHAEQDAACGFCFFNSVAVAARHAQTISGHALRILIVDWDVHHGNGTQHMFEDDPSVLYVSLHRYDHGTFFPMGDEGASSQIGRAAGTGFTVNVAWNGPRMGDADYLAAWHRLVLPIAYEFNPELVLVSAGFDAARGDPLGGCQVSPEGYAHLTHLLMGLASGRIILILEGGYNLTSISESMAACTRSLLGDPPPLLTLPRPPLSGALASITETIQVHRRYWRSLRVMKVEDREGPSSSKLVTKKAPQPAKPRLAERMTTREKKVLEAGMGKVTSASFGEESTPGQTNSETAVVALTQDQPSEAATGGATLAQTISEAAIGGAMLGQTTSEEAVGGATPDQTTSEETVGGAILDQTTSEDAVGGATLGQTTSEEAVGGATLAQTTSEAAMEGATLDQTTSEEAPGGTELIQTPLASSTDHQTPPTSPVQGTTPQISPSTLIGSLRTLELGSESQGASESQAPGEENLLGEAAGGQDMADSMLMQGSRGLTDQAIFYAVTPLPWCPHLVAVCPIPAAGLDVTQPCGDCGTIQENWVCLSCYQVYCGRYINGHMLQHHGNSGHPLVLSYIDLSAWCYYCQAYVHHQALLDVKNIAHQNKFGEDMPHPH
Experimental: HDAC inhibition assays were performed by Reaction Biology Corporation (Malvern, PA). Full-length recombinant hHDAC 6 was expressed in a baculovirus expression system in SF9 cells. […] The reaction was stopped after 2 h at 30 °C . Trichostatin A was used as an internal control.

PARP-1 and Caspase-3 = test: Western blotting of apoptosis biomarkers PARP-1 and Caspase-3 in PC-3 cells; assay type: cell-based, human; conditions: 30 μM, 24 h
Experimental: (§2) Figure 3. Western blotting analysis of (a) HDAC6 protein in PC-3 cells treated with various dimer compounds at 30 μM for 24 h, (b) Ac-α-tubulin protein in PC-3 cells treated with various dimer compounds at 30 μM for 24 h, (c) LC-3 I, LC-3 II, and p62 proteins in PC-3 cells treated with various dimer compounds at 30 μM for 24 h, (d) PARP-1 and Caspase-3 proteins in PC-3 cells treated with various dimer compounds at 30 μM for 24 h, (e) p-BUBR1^S670 and p-BUBR1^T680 proteins in PC-3 cells treated with various dimer compounds at 30 μM for 24 h. Glyceraldehyde 3-phosphate dehydrogenase (GAPDH) was used as the loading control.
(§3) After compound treatment, the cells were harvested and centrifuged. […] The supernatants quantified by Bio-Rad protein assay kit (Bio-Rad Laboratories, Hercules, CA) were mixed with sample buffer (0.3 M Tris pH6.8, 10% SDS, 50% glycerol, 10% β-mercaptoethanol, and 0.02% bromophenol blue) and heated at 95 °C for 10 min. The protein (30 µg) was separated by electrophoresis in 8% or 12% SDS-PAGE, transferred to PVDF membranes, and detected with specific antibodies (1:1000 dilution for the first and 1:7000 for the second antibodies). The immunoreactive proteins were detected with an enhanced chemiluminescence detection kit (Amersham, Buckinghamshire, UK) and the images were captured by ChemiDoc™ MP System (Bio-Rad Laboratories, Hercules, CA).

LC-3 II and p62 = test: Western blotting of autophagy proteins LC-3 II and p62 in PC-3 cells; assay type: cell-based, human; conditions: 30 μM, 24 h
Experimental: as §2, §3

HDAC6 [2] = target: T2, HDAC6; test: Western blotting of HDAC6 protein (degradation) in PC-3 cells; assay type: cell-based; set-up: endogenous in cells; host or cells: PC-3 (ATCC); conditions: 30 μM, 24 h
Experimental: as §2, §3

Row | Compound | IC50 (HDAC1) [µM] | GI50 (A549 cells; A549, 48 h) [µM] | GI50 (PC-3 cells; PC-3, 48 h) [µM] | HDAC1/6 Selectivity (HDAC6 [1]) | GI50 (A549 cells; A549 cells, SRB, 48 h) [µM] | GI50 (PC-3 cells; PC-3 cells, SRB, 48 h) [µM] | IC50 (HDAC6 [1]) [µM] | apoptosis induction (PARP-1 cleavage, Caspase-3 activation) (PARP-1 and Caspase-3) | autophagy induction (LC-3 II level, p62 expression) (LC-3 II and p62) | HDAC6 degradation (Western blot) (HDAC6 [2])
1 | O=C(NO)c1ccc(Cn2c(=O)n(CCc3ccccc3)c(=O)c3ccccc32)cc1 [Compound 1] | 11.2 | 8.8 | 3.5 | 2790 |  |  |  |  |  | 
2 | O=C(NO)c1ccc(Cn2c(=O)n(CCc3ccccc3)c(=O)c3cc(NCCCCCNc4ccc5c(c4)c(=O)n(CCc4ccccc4)c(=O)n5Cc4ccc(C(=O)NO)cc4)ccc32)cc1 [Compound 4c, 4-{[6-(5-{1-[(4-Hydroxamophenyl)methyl]-2,4-dioxo-3-phenethylquinazolin-6-ylamino}pentylamino)-2,4-dioxo-3-phenethylquinazolin-1-yl]methyl}benzohydroxamic acid] |  |  |  |  | > 30 | 21.4 ± 0.3 | 0.096 |  |  | 
3 | O=C(NO)c1ccc(Cn2c(=O)n(CCOCCOCCOCCn3c(=O)c4ccccc4n(Cc4ccc(C(=O)NO)cc4)c3=O)c(=O)c3ccccc32)cc1 [Compound 8a, 4-{[3-(11-{1-[(4-Hydroxamophenyl)methyl]-2,4-dioxoquinazolin-3-yl}-3,6,9-trioxaundecyl)-2,4-dioxoquinazolin-1-yl]methyl}benzohydroxamic acid] | 3.33 |  |  | 273 | > 30 | 14.7 ± 1.3 | 0.012 | induce apoptosis | strong autophagy induction | degradation of HDAC6 was observed; also recorded: induced HDAC6 auto-degradation
4 | O=C(NO)c1ccc(Cn2c(=O)n(CCOCCOCCn3c(=O)c4ccccc4n(Cc4ccc(C(=O)NO)cc4)c3=O)c(=O)c3ccccc32)cc1 [Compound 8b, 4-[(3-{2-[2-(2-{1-[(4-Hydroxamophenyl)methyl]-2,4-dioxoquinazolin-3-yl}ethoxy)ethoxy]ethyl}-2,4-dioxoquinazolin-1-yl)methyl]benzohydroxamic acid] | 3.19 |  |  | 1386 | > 30 | > 30 | 0.002 |  |  | 
5 | O=C(NO)c1ccc(Cn2c(=O)n(CCCCCn3c(=O)c4ccccc4n(Cc4ccc(C(=O)NO)cc4)c3=O)c(=O)c3ccccc32)cc1 [Compound 8c, 4-{[3-(5-{1-[(4-Hydroxamophenyl)methyl]-2,4-dioxoquinazolin-3-yl}pentyl)-2,4-dioxoquinazolin-1-yl]methyl}benzohydroxamic acid] |  |  |  |  | > 30 | > 30 | 0.027 |  |  | 

More lines, main results first:

Row | IC50 (HDAC1) [µM] | GI50 (A549 cells; A549, 48 h) [µM] | GI50 (PC-3 cells; PC-3, 48 h) [µM] | HDAC1/6 Selectivity (HDAC6 [1]) | GI50 (A549 cells; A549 cells, SRB, 48 h) [µM] | GI50 (PC-3 cells; PC-3 cells, SRB, 48 h) [µM] | IC50 (HDAC6 [1]) [µM] | Compound | apoptosis induction (PARP-1 cleavage, Caspase-3 activation) (PARP-1 and Caspase-3) | autophagy induction (LC-3 II level, p62 expression) (LC-3 II and p62) | HDAC6 degradation (Western blot) (HDAC6 [2])
6 |  |  |  |  | > 30 | > 30 | 0.092 | O=C(NO)c1ccc(Cn2c(=O)n(CCc3ccccc3)c(=O)c3cc(NCCOCCOCCOCCNc4ccc5c(c4)c(=O)n(CCc4ccccc4)c(=O)n5Cc4ccc(C(=O)NO)cc4)ccc32)cc1 [Compound 4a, 4-{[6-(2-{2-[2-(2-{1-[(4-Hydroxamophenyl)methyl]-2,4-dioxo-3-phenethylquinazolin-6-ylamino}ethoxy)ethoxy]ethoxy}ethylamino)-2,4-dioxo-3-phenethylquinazolin-1-yl]methyl}benzohydroxamic acid] |  |  | 
7 | > 10 |  |  | >12 | > 30 | > 30 | 0.816 | O=C(NO)c1ccc(Cn2c(=O)n(CCc3ccccc3)c(=O)c3cc(NCCOCCOCCNc4ccc5c(c4)c(=O)n(CCc4ccccc4)c(=O)n5Cc4ccc(C(=O)NO)cc4)ccc32)cc1 [Compound 4b, 4-[(6-{2-[2-(2-{1-[(4-Hydroxamophenyl)methyl]-2,4-dioxo-3-phenethylquinazolin-6-ylamino}ethoxy)ethoxy]ethylamino}-2,4-dioxo-3-phenethylquinazolin-1-yl)methyl]benzohydroxamic acid] |  |  | 
8 | 9.57 |  |  | 283 | 9.1 ± 1.8 | 5.5 ± 0.7 | 0.033 | O=C(NO)c1ccc(Cn2c(=O)n(CCc3ccc(NCCOCCOCCNc4ccc(CCn5c(=O)c6ccccc6n(Cc6ccc(C(=O)NO)cc6)c5=O)cc4)cc3)c(=O)c3ccccc32)cc1 [Compound 6b, 4-{[3-(2-{4-[2–(2-{2-[4-(2-{1-[(4-Hydroxamophenyl)methyl]-2,4-dioxoquinazolin-3-yl}ethyl)phenylamino]ethoxy}ethoxy)ethylamino]phenyl}ethyl)-2,4-dioxoquinazolin-1-yl]methyl}benzohydroxamic acid] | did not induce apoptosis | signs of inducing autophagy | did not degrade HDAC6
9 | 2.6 |  |  | 577 | 17.3 ± 0.2 | 5.9 ± 0.7 | 0.004 | O=C(NO)c1ccc(CNc2ccccc2C(=O)NCCOCCOCCOCCNC(=O)c2ccccc2NCc2ccc(C(=O)NO)cc2)cc1 [Compound 11a] |  |  | 
10 | 1.27 |  |  | 326 | 17.9 ± 0.4 | 11.3 ± 0.2 | 0.003 | O=C(NO)c1ccc(CNc2ccccc2C(=O)NCCOCCOCCNC(=O)c2ccccc2NCc2ccc(C(=O)NO)cc2)cc1 [Compound 11b] |  |  | 
11 | 1.46 |  |  | 95 | 6.6 ± 0.1 | 8.2 ± 0.1 | 0.015 | O=C(NO)c1ccc(CNc2ccccc2C(=O)NCCCCCNC(=O)c2ccccc2NCc2ccc(C(=O)NO)cc2)cc1 [Compound 11c] |  |  | 
